According to US20060128695A1, “Cyclic nucleotide phosphodiesterase inhibitors, preparation and uses” (NEURO3D, priority 2002, published 2006):
Structures can show the parent of a compound that is named as a salt.

Each molecule was assayed against T1, PDE2 (Bos taurus, UniProt P14099) (assay: Inhibition of PDE2, radioenzymatic phosphodiesterase assay). Conditions: not given.
T1 construct: PDE2 was prepared from bovine endothelial cells by the same methods; endogenous in cells; host or cells: bovine endothelial cells
T1 sequence (P14099 1-921): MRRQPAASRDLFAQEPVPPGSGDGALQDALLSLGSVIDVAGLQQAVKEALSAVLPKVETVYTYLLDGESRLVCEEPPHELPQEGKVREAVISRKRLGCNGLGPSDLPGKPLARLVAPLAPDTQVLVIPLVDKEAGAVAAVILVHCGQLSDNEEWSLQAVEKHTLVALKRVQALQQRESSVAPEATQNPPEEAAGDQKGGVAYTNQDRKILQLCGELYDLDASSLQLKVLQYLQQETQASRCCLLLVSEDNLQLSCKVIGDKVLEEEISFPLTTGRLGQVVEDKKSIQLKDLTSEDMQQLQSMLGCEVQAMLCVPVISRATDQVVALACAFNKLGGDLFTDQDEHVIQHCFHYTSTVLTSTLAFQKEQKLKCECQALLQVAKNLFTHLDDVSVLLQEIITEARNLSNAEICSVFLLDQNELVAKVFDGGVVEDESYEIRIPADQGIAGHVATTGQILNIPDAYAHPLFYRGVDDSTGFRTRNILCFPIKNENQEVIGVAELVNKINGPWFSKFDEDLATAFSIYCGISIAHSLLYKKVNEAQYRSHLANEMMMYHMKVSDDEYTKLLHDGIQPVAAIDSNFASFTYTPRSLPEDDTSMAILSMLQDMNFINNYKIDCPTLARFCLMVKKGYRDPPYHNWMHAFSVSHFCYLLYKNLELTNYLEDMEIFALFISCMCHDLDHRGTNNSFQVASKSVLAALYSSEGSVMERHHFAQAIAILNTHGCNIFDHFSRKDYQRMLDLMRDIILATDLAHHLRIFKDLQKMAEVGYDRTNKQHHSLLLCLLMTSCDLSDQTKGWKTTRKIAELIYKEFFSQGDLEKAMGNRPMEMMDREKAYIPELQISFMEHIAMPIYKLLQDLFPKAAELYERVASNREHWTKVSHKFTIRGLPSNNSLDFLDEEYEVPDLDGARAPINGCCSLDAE
Assay type: biochemical, bovine

Row | SMILES | IC50 [µM]
1 | COc1cc2c(cc1OC)N(C)C(=O)CN=C2c1cccc(CCCCCC(N)=O)c1 [Compound 6i, 6-[3-(7,8-dimethoxy-1-methyl-2-oxo-2,3-dihydro-1H-1,4-benzodiazepin-5-yl)phenyl]hexanamide] | 5.6
2 | COc1cc2c(cc1OC)N(C)C(=O)C(Cc1ccc(Cl)c(Cl)c1)N=C2c1cccc(C#N)c1 (stereo not drawn) [Compound 7b, 3-[3-(3,4-dichlorobenzyl)-7,8-dimethoxy-1-methyl-2-oxo-2,3-dihydro-1H-1,4-benzodiazepin-5-yl]benzonitrile] | 5.5
3 | COc1cc2c(cc1OC)N(C)C(=O)CN=C2c1cccc(CN)c1 [Compound 8a, 5-[3-(aminomethyl)phenyl]-7,8-dimethoxy-1-methyl-1,3-dihydro-2H-1,4-benzodiazepin-2-one] | 9
4 | COc1cc2c(cc1OC)N(C)C(=O)CN=C2c1cccc([N+](=O)[O-])c1 [Compound 17c, 7,8-dimethoxy-1-methyl-5-(3-nitrophenyl)-1,3-dihydro-1,4-benzodiazepin-2-one] | 6.1
5 | COc1cc2c(cc1OC)N(C)C(=O)CN=C2c1cccc(C(C)=O)c1 [Compound 17e, 5-(3-acetylphenyl)-7,8-dimethoxy-1-methyl-1,3-dihydro-1,4-benzodiazepin-2-one] | 6.7
6 | COc1cc2c(cc1OC)N(C)C(=O)CN=C2c1cncc2ccccc12 [Compound 17f, 5-(4-isoquinolinyl)-7,8-dimethoxy-1-methyl-1,3-dihydro-1,4-benzodiazepin-2-one] | 4.7
7 | COc1cc2c(cc1OC)N(C)C(=O)CN=C2c1ccc(Cl)c(Cl)c1 [Compound 17j, 5-(3,4-dichlorophenyl)-7,8-dimethoxy-1-methyl-1,3-dihydro-1,4-benzodiazepin-2-one] | 7
8 | COc1cc2c(cc1OC)N(C)C(=O)CN=C2c1cccc(C)c1 [Compound 17k, 7,8-dimethoxy-1-methyl-5-(3-methylphenyl)-1,3-dihydro-1,4-benzodiazepin-2-one] | 3.7
9 | COc1cc2c(cc1OC)N(C)C(=O)CN=C2c1cccc(C=O)c1 [Compound 17l, 5-(3-formylphenyl)-7,8-dimethoxy-1-methyl-1,3-dihydro-1,4-benzodiazepin-2-one] | 5
10 | COc1cc2c(cc1OC)N(C)C(=O)CN=C2c1cccc(CNCc2ccccc2)c1 [Compound 17m, 5-[3-(benzylaminomethyl)phenyl]-7,8-dimethoxy-1-methyl-1,3-dihydro-2H-1,4-benzodiazepin-2-one hydrochloride] | 4.8
11 | COc1cc2c(cc1OC)N(C)C(=O)CN=C2c1ccc2c(c1)OCO2 [Compound 17o, 7,8-dimethoxy-1-methyl-5-(3,4-methylenedioxyphenyl)-1,3-dihydro-2H-1,4-benzodiazepin-2-one] | 7.8
12 | COc1cc2c(c(Br)c1OC)C(c1cccc(C#N)c1)=NCC(=O)N2C [Compound 24b, 3-(6-bromo-7,8-dimethoxy-1-methyl-2-oxo-2,3-dihydro-1H-1,4-benzodiazepin-5-yl)benzonitrile] | 3.3
13 | COc1ccc2c(c1)NC(=O)CN=C2c1cccc(C#N)c1 [Compound 28a, 3-(8-methoxy-2-oxo-2,3-dihydro-1H-1,4-benzodiazepin-5-yl)benzonitrile] | 65
14 | COc1cccc2c1C(c1cccc(C#N)c1)=NCC(=O)N2 [Compound 28b, 3-(6-methoxy-2-oxo-2,3-dihydro-1H-1,4-benzodiazepin-5-yl)benzonitrile] | 88

Same assay, conditions: 10 μM test compound; PDE2 from bovine endothelial cells

Row | SMILES | PDE2 percentage inhibition at 10 μM [%]
15 | CNC1=Nc2cc(OC)c(OC)cc2C(c2cccc(C#N)c2)=NC1 [Compound 12a, 3-(7,8-dimethoxy-2-methylamino-1,3-dihydro-3H-1,4-benzodiazepin-5-yl)benzonitrile] | 16

Same assay, conditions: 10 μM test compound; PDE2 from bovine endothelial cells; read-out: PDE2 percentage inhibition at 10 μM

Row | SMILES | inhibition at 10 µM [%]
16 | COc1cc2c(cc1OC)N(C)C(=O)CN=C2c1cccc(CNC(C)=O)c1 [Compound 8b, N-[3-(7,8-dimethoxy-1-methyl-2-oxo-2,3-dihydro-1H-1,4-benzodiazepin-5-yl)benzyl]acetamide] | 27.2
17 | COc1cc2c(cc1OC)N(C)C(=O)CN=C2c1cccc(C(N)=S)c1 [Compound 9a, 3-(7,8-dimethoxy-1-methyl-2-oxo-2,3-dihydro-1H-1,4-benzodiazepin-5-yl)thiobenzamide] | 85
18 | COc1cc2c(cc1OC)-n1ccnc1CN=C2c1cccc(C(N)=O)c1 [Compound 11b, 3-(8,9-dimethoxy-4H-imidazo[1,2-a] [1,4]benzodiazepin-6-yl)benzamide] | 69.3
19 | COc1cc2c(cc1OC)N(C)C(=O)CN=C2c1cccc(NC(C)=O)c1 [Compound 17n, N-[3-(7,8-dimethoxy-1-methyl-2-oxo-2,3-dihydro-1H-1,4-benzodiazepin-5-yl)phenyl]acetamide] | 38

Same assay, conditions: read-out: PDE2 percentage inhibition at 10 μM

Row | SMILES | inhibition at 10 µM [%]
20 | CCN1C(=O)CN=C(c2cccc(C#CCOCc3ccccc3)c2)c2cc(OC)c(OC)cc21 [Compound 6k, 5-{3-[3-(benzyloxy)prop-1-ynyl]phenyl}-1-ethyl-7,8-dimethoxy-1,3-dihydro-2H-1,4-benzodiazepin-2-one] | 69.7
21 | COc1cc2c(cc1OC)N(C)C(=O)CN=C2c1cccc(-c2cccc(C#N)c2)c1 [Compound 6l, 3′-(7,8-dimethoxy-1-methyl-2-oxo-2,3-dihydro-1H-1,4-benzodiazepin-5-yl)-1,1′-biphenyl-3-carbonitrile] | 77.5
22 | COc1cc2c(cc1OC)N(C)C(=O)CN=C2c1cccc(-c2cccc(C(N)=O)c2)c1 [Compound 6o, 3′-(7,8-dimethoxy-1-methyl-2-oxo-2,3-dihydro-1H-1,4-benzodiazepin-5-yl)-1,1′-biphenyl-3-carboxamide] | 79.3
23 | COc1cc2c(cc1OC)N(C)C(=O)C(C)N=C2c1cccc(C(F)(F)F)c1 (stereo not drawn) [Compound 7c, 7,8-dimethoxy-1,3-dimethyl-5-(3-trifluoromethylphenyl)-1,3-dihydro-2H-1,4-benzodiazepin-2-one] | 41
24 | COc1cc2c(cc1OC)N(C)C(=O)C(C)N=C2c1cccc(C#N)c1 (stereo not drawn) [Compound 7d, 3-(7,8-dimethoxy-1,3-dimethyl-2-oxo-2,3-dihydro-1H-1,4-benzodiazepin-5-yl)benzonitrile] | 33.8
25 | COc1cc2c(cc1OC)N(C)C(=O)CN=C2c1cccc(-c2nc(-c3ccccc3)cs2)c1 [Compound 9b, 7,8-dimethoxy-1-methyl-5-[3-(4-phenyl-1,3-thiazol-2-yl)phenyl]-1,3-dihydro-2H-1,4-benzodiazepin-2-one] | 91.4
26 | COc1cc2c(cc1OC)C(c1cccc(C#N)c1)=NCC(=S)N2 [Compound 10d, 5-(3-cyanophenyl)-7,8-dimethoxy-1,3-dihydro-2H-1,4-benzodiazepin-2-thione] | 5.5
27 | COc1cc2c(cc1OC)-n1ccnc1CN=C2c1cccc(C#N)c1 [Compound 11a, 3-(8,9-dimethoxy-4H-imidazo[1,2-a][1,4]benzodiazepin-6-yl)benzonitrile] | 43
28 | CCCC1N=C(c2cccc(CO)c2)c2cc(OC)c(OC)cc2N(C)C1=O (stereo not drawn) [Compound 17h, 7,8-dimethoxy-5-(3-hydroxymethylphenyl)-1-methyl-3-propyl-1,3-dihydro-2H-1,4-benzodiazepin-2-one] | 9.2
29 | COc1cc2c(cc1OC)N(C)C(=O)CN=C2c1cccc(N)c1 [Compound 17i, 5-(3-aminophenyl)-7,8-dimethoxy-1-methyl-1,3-dihydro-2H-1,4-benzodiazepin-2-one] | 40
30 | COc1cc2c(cc1O)C(c1cccc(C#N)c1)=NCC(=O)N2 [Compound 22b, 3-(7-hydroxy-8-methoxy-2-oxo-2,3-dihydro-1H-1,4-benzodiazepin-5-yl)benzonitrile] | 3.8
31 | COc1cc2c(c(Br)c1O)C(c1cccc(C#N)c1)=NCC(=O)N2 [Compound 23b, 3-(6-bromo-7-hydroxy-8-methoxy-2-oxo-2,3-dihydro-1H-1,4-benzodiazepin-5-yl)benzonitrile] | 20.1
32 | COc1cc2c(c(-c3ccccc3)c1OC)N(C)C(=O)CN=C2c1cccc(C#N)c1 [Compound 25a, 3-(7,8-dimethoxy-1-methyl-2-oxo-9-phenyl-2,3-dihydro-1H-1,4-benzodiazepin-5-yl)benzonitrile] | 0
33 | COc1cc2c(c(-c3ccccc3)c1OC)C(c1cccc(C#N)c1)=NCC(=O)N2C [Compound 25b, 3-(7,8-dimethoxy-1-methyl-2-oxo-6-phenyl-2,3-dihydro-1H-1,4-benzodiazepin-5-yl)benzonitrile] | 22.9
34 | COc1ccc2c(c1)NC(=O)CN=C2c1cccc(C#N)c1 [Compound 28a, 3-(8-methoxy-2-oxo-2,3-dihydro-1H-1,4-benzodiazepin-5-yl)benzonitrile] | 52.5
35 | COc1cccc2c1C(c1cccc(C#N)c1)=NCC(=O)N2 [Compound 28b, 3-(6-methoxy-2-oxo-2,3-dihydro-1H-1,4-benzodiazepin-5-yl)benzonitrile] | 34.5
36 | COc1ccc2c(c1)C(c1cccc(C#N)c1)=NCC(=O)N2 [Compound 28c, 3-(7-methoxy-2-oxo-2,3-dihydro-1H-1,4-benzodiazepin-5-yl)benzonitrile] | 46.5
